The values below come from patent US12178917B2, “Beta-lactamase formulations and uses thereof” (Theriva Biologics, Inc., priority 2014, dated 2024).

A short description of one data set: in vivo. The conditions noted are these: Yorkshire, pig; for CRO serum levels: iv, 50 mg/kg. The arrangement: species or system Yorkshire piglets. The protocol:
A total of 10 pigs were treated once a day with IV ceftriaxone (CRO; 50 mg/kg) for a total of 7 days. A cohort of 5 pigs also received oral P3A (75 mg, four times a day), starting the day before CRO treatment and extending one day after CRO was stopped, for a total of 9 days. On Day 2 of CRO treatment, serum was collected 1, 6, and 19 hours after CRO administration. Serum was assayed for CRO levels using a validated high-performance liquid chromatography assay. […] The CRO levels in the serum collected at 19 hours was below the limit of detection of the assay (0.5 ug/mL). For both sets of histograms (1 hour and 6 hours), the left bar is ceftriaxone alone and the right bar is ceftriaxone and P3A.
Another pig study was performed to determine if oral administration of P3A (i.e. SYN-004) had any effect on the systemic levels of antibiotics. For this study, ten Yorkshire piglets, approximately 2 months old and weighing approximately 20 kg were treated with intravenous ceftriaxone (CRO) at 50 mg/kg once a day for seven days. Five animals also received P3A capsules (1 capsule containing 75 mg of P3A, four times a day) beginning the day before CRO treatment and extending to one day after CRO treatment, for a total of nine days. Specifically, the P3A delayed-release capsules as described in Examples 1 and 2 were administered to the animals. On day 2, animals were anesthetized and approximately 9 mls of blood drawn from the vena cava at three timepoints, 1 hour, 6 hours, and 19 hours after CRO administration. Blood was immediately dispensed into a serum separator vacutainer tube. After coagulation, samples were centrifuged and the serum was transferred to a cryovial and stored at −80° C. until analysis. CRO in the serum samples was quantified using a validated high-performance liquid chromatography assay (Owens et al., 2001, Int. J. Antimicrobial Agents, 17:483). A standard curve for CRO was prepared in negative control (untreated) pig serum and contained 6 points ranging from 0.5 to 50 ug/mL. The assay was linear over a range of 0.5 to 50 ug/mL. […]

In data set [1] the test system is ampicillin-resistant aerobes including those of the phylum Proteobacteria. Nature of the data set: Plating of Day 21 feces on LB+amp plates. The format is in vivo, gnotobiotic pigs populated with human adult fecal microflora. The note with it: aerobic conditions, 37° C. The protocol:
Equal quantities of diluted feces collected from animals at necropsy were plated on LB+amp plates and grown under aerobic conditions at 37° C., The colonies were counted while taking into account the dilution factor.
The gastrointestinal (GI) tract of 5 day old gnotobiotic pigs was populated with human adult fecal microflora. Two days later, animals received antibiotics (clindamycin or CRO, IP, 50 mg/kg) for 4 days. P3A was delivered orally 4 times a day (75 mg/dose) for 7 days beginning the day before CRO administration. Specifically, the P3A delayed-release capsules as described in Examples 1 and 2 were administered to the animals. C. difficile (2.6×10^6 cfu) was delivered orally to all animals on Day 13. Feces were collected on Days 11, 12, 14, 18, 20 directly from the rectum using sterile cotton swabs and at necropsy on Day 21 directly from the intestinal tract. […] The levels of a specific bacterial population expected to be sensitive to CRO, but not to clindamycin, ampicillin-resistant aerobes including those of the phylum Proteobacteria, were assessed by plating equal amounts of Day 21 feces on LB+amp plates. Fecal C. difficile Toxin A and interleukin-8 (ILS) were assessed via ELISA as a measure of C. difficile infection (CDI). Intestinal tracts collected at necropsy on Day 21 were evaluated histologically for signs of CDI.

For data set [2], the system named is intestinal microbiome. Nature of the data set: Whole genome shotgun sequencing and comparative metagenomics of pig fecal samples. The note with it: for number of bacterial taxa, Genus / number of bacterial taxa, Species / number of bacterial taxa, Strain/sub-species: per treatment group, pig fecal samples. In kind it is in vivo, gnotobiotic pigs populated with human adult fecal microflora. How it is done:
In order to study the ability of P3A to protect the intestinal microbiome from antibiotics-induced (e.g., ceftriaxone (CRO)-induced) damage, pig fecal samples obtained from the study described above were subjected to additional genomic analysis. Specifically, the 16S rRNA gene V1V2 region was sequenced. In addition, fecal DNA was subjected to whole genome shotgun sequencing. Shotgun sequencing was performed using Illumina HiSeq RAPID RUN, targeting 100 bp single read with the aim to achieve approximately 10-20 million reads per sample (Table 6),
These sequence data were classified taxonomically to identify microbial communities associated with the pig fecal samples. Taxonomic classification was performed using bioInformatics algorithms and curated genome databases. Briefly, raw, unassembled shotgun sequence reads were probed against curated GeneBook bacterial and viral databases using GENIUS software package for rapid identification of bacteria communities as well as their relative abundance (Hasan of al., 2014, PLoS ONE 9:e97699; Lax et al., 2014, Science 345:1048). The analyses identified 139 bacterial strains, 79 species, and 35 genera among the treatment groups (Table 7).
Comparative metagenomics analyses were performed by creating heatmaps based on the relative abundance of each bacterial strain in each sample (see FIGS. 11A and 11B) and at the bacterial genus level (see FIG. 12) using the NMF R software package (Gaujoux and Seoighe, 2010, BMC Bioinformatics, 11:367). The samples were clustered using the maximum distance function and the Ward Hierarchical Clustering algorithm. The distance function was used to measure the difference in composition between each of the samples. The clustering algorithm used the distances between each of the samples to create a dendrogram that clustered samples with similar compositions, including both the presence and absence of organisms, in the same clades.
Comparative metagenomics analyses were also performed to investigate changes in the microbiome across different treatment groups. For these analyses, the centroid classification method from the PamR package (Tibshirani of al., 2002, PNAS 99:6567), was used to compare the average frequency (absolute abundance) of each bacterial strain in the samples. The deviation of the centroid of each bacterial strain from each study group was graphed by the overall centroid of all the study groups (FIGS. 13A and 13B).
As the number of sequence reads generated from each individual sample was variable, subsamples from each sample were chosen to represent a subset of 10 million reads. This was done to avoid any bias due to different sample sizes and to enable the measurement of the absolute abundance of the bacterial organisms in the samples. Using these subsets to reduce bias, the comparative metagenomics analyses were performed as described previously for FIGS. 13A and 13B by graphing the deviation of the centroid of each bacterial strain from each study group by the overall centroid of all the study groups (FIGS. 14A and 14B).

Data set [3] deals with intestinal microbiome. Nature of the data set: P3A-mediated microbiome protection in humanized pigs, 16S rRNA sequencing of fecal DNA. The format is in vivo, gnotobiotic pigs populated with human adult fecal microflora. The note with it: feces collected on Day 14; antibiotics IP 50 mg/kg 4 days; P3A 75 mg/dose orally 4 times a day 7 days.
[4] abbreviates: species-level centroid classification vs Group 1 (Control).

Regarding `CO/N=C(\C(=O)N[C@@H]1C(=O)N2C(C(=O)O)=C(CSc3nc(=O)c(=O)[nH]n3C)CS[C@H]12)c1csc(N)n1` [CRO, ceftriaxone], the concentration at 19 h in “in vivo” was below 500 ng/mL. The compound also returned a CRO serum levels in “in vivo” (1 h) of 79.43 ± 12.08 µg/mL. Further, the CRO serum levels in the data set “in vivo” (6 h) stood at 5.83 ± 1.15 µg/mL. The “bacteria levels on LB+amp plates” value in data set [1] is listed as “at least two log lower levels”. Also, in the data set on intestinal microbiome [2], the “number of bacterial taxa, Genus” value was determined as 32; the “number of bacterial taxa, Species” value came to 70; the “number of bacterial taxa, Strain/sub-species” value is on record as 102. Also, in the data set on intestinal microbiome [2] (setting [4]), the “abundance of Methanobrevibacter smithii” value is “overabundance” and the “abundance of Turicibacter spp” value is given as “underrepresentation”. Besides, the “phylum-level taxonomic classification of bacteria in fecal DNA” value with intestinal microbiome [3] is “dysbiosis”.
Turning to `CCC[C@@H]1C[C@@H](C(=O)N[C@@H]([C@H]2O[C@H](SC)[C@H](O)[C@@H](O)[C@H]2O)[C@H](C)Cl)N(C)C1` [clindamycin], in the data set with intestinal microbiome [2], the “number of bacterial taxa, Genus” value came out at 7; the “number of bacterial taxa, Species” value stood at 12; the “number of bacterial taxa, Strain/sub-species” value came to 17.
